# Experimental data: patent publication US10004701B2, “Methods and compositions for treating infection” (UNIVERSITY OF ROCHESTER, priority 2012, dated 2018)
# Structures can show the parent of a compound that is named as a salt. Where two headings read alike, the source gives them in different places.
# Key:
# Assay in all cases: AK assay 384-well format, Prestwick library screening
# [1] = test system: E. faecium; format: cell-based, Enterococcus faecium; conditions: 50 μM final drug concentration; for fold induction at 50 µM: Enterococcus faecium, 3 h
# [2] = test system: S. aureus strain USA300-0114; format: cell-based, Staphylococcus aureus; conditions: 50 μM final drug concentration; for fold induction at 50 µM: Staphylococcus aureus, USA300, 3 h
# [3] = test system: K. pneumoniae; format: cell-based, Klebsiella pneumoniae; conditions: 50 μM final drug concentration; for fold induction at 50 µM: Klebsiella pneumoniae, 3 h
# [4] = test system: A. baumannii strain 98-37-09; format: cell-based, Acinetobacter baumannii; conditions: 50 μM final drug concentration; for fold induction at 50 µM: Acinetobacter baumannii, 983709, 3 h
# [5] = test system: P. aeruginosa; format: cell-based, Pseudomonas aeruginosa; conditions: 50 μM final drug concentration; for fold induction at 50 µM: Pseudomonas aeruginosa, 3 h
# [6] = test system: E. cloacae; format: cell-based, Enterobacter cloacae; conditions: 50 μM final drug concentration; for fold induction at 50 µM: Enterobacter cloacae, 3 h
# [7] = test system: E. coli; format: cell-based, Escherichia coli; conditions: 50 μM final drug concentration; for fold induction at 50 µM: Escherichia coli, 3 h
# [8] = 384-well format, cutoff for positive-scoring molecules 3-fold increase, read-out: AK-based Prestwick Library Screening Results, E. faecium (increase in extracellular AK activity)
# [9] = 384-well format, cutoff for positive-scoring molecules 3-fold increase, read-out: AK-based Prestwick Library Screening Results, S. aureus (increase in extracellular AK activity)
# [10] = 384-well format, cutoff for positive-scoring molecules 3-fold increase, read-out: AK-based Prestwick Library Screening Results, K. pneumoniae (increase in extracellular AK activity)
# [11] = 384-well format, cutoff for positive-scoring molecules 3-fold increase, read-out: AK-based Prestwick Library Screening Results, A. baumannii (increase in extracellular AK activity)
# [12] = 384-well format, cutoff for positive-scoring molecules 3-fold increase, read-out: AK-based Prestwick Library Screening Results, P. aeruginosa (increase in extracellular AK activity)
# [13] = 384-well format, cutoff for positive-scoring molecules 3-fold increase, read-out: AK-based Prestwick Library Screening Results, E. cloacae (increase in extracellular AK activity)
# [14] = 384-well format, cutoff for positive-scoring molecules 3-fold increase, read-out: AK-based Prestwick Library Screening Results, E. coli (increase in extracellular AK activity)
# [15] = planktonic E. faecium, 384-well, cutoff for positive-scoring molecules 3-fold increase, read-out: AK-based Prestwick Library Screening Results: E. faecium (increase in extracellular AK activity)
# [16] = planktonic S. aureus, 384-well, cutoff for positive-scoring molecules 3-fold increase, read-out: AK-based Prestwick Library Screening Results: S. aureus (increase in extracellular AK activity)
# [17] = planktonic K. pneumoniae, 384-well, cutoff for positive-scoring molecules 3-fold increase, read-out: AK-based Prestwick Library Screening Results: K. pneumoniae (increase in extracellular AK activity)
# [18] = planktonic A. baumannii, 384-well, cutoff for positive-scoring molecules 3-fold increase, read-out: AK-based Prestwick Library Screening Results: A. baumannii (increase in extracellular AK activity)
# [19] = planktonic P. aeruginosa, 384-well, cutoff for positive-scoring molecules 3-fold increase, read-out: AK-based Prestwick Library Screening Results: P. aeruginosa (increase in extracellular AK activity)
# [20] = planktonic E. cloacae, 384-well, cutoff for positive-scoring molecules 3-fold increase, read-out: AK-based Prestwick Library Screening Results: E. cloacae (increase in extracellular AK activity)
# [21] = planktonic E. coli, 384-well, cutoff for positive-scoring molecules 3-fold increase, read-out: AK-based Prestwick Library Screening Results: E. coli (increase in extracellular AK activity)
structure (smiles),measurement,setting,value
CC1=CC(=O)C2=C(C)CC[C@@H]3[C@H](OC(=O)[C@H]3C)[C@@H]12 [Leucomisine],"AK-based Prestwick library screening result, E. faecium (fold increase in extracellular AK activity)","[1]; planktonic E. faecium, positive cutoff 3-fold increase",1.1
same,"AK-based Prestwick library screening result, S. aureus (fold increase in extracellular AK activity)","[2]; planktonic S. aureus, positive cutoff 3-fold increase",0.9
same,"AK-based Prestwick library screening result, K. pneumoniae (fold increase in extracellular AK activity)","[3]; planktonic K. pneumoniae, positive cutoff 3-fold increase",1.0
same,"AK-based Prestwick library screening result, A. baumannii (fold increase in extracellular AK activity)","[4]; planktonic A. baumannii, positive cutoff 3-fold increase",1.0
same,"AK-based Prestwick library screening result, P. aeruginosa (fold increase in extracellular AK activity)","[5]; planktonic P. aeruginosa, positive cutoff 3-fold increase",1.1
same,"AK-based Prestwick library screening result, E. cloacae (fold increase in extracellular AK activity)","[6]; planktonic E. cloacae, positive cutoff 3-fold increase",1.6
same,"AK-based Prestwick library screening result, E. coli (fold increase in extracellular AK activity)","[7]; planktonic E. coli, […]",1.3
c1ccc([C@H]2CN3CCSC3=N2)cc1 [Levamisole hydrochloride],fold induction at 50 µM,[1]; [8],1
same,fold induction at 50 µM,[2]; [9],0.9
same,fold induction at 50 µM,[3]; [10],0.7
same,fold induction at 50 µM,[4]; [11],1.1
same,fold induction at 50 µM,[5]; [12],1
same,fold induction at 50 µM,[6]; [13],1
same,fold induction at 50 µM,[7]; [14],1
C[C@@H]1CN([C@H]2CC[C@](C#N)(c3ccc(F)cc3)CC2)CC[C@]1(C(=O)O)c1ccccc1 [Levocabastine hydrochloride],fold induction at 50 µM,"[1]; planktonic E. faecium, positive cutoff 3-fold increase, read-out: AK-based Prestwick library screening result, E. faecium (fold increase in extracellular AK activity)",1
same,fold induction at 50 µM,"[2]; planktonic S. aureus, positive cutoff 3-fold increase, read-out: AK-based Prestwick library screening result, S. aureus (fold increase in extracellular AK activity)",1.1
same,fold induction at 50 µM,"[3]; planktonic K. pneumoniae, positive cutoff 3-fold increase, read-out: AK-based Prestwick library screening result, K. pneumoniae (fold increase in extracellular AK activity)",1.1
same,fold induction at 50 µM,"[4]; planktonic A. baumannii, positive cutoff 3-fold increase, read-out: AK-based Prestwick library screening result, A. baumannii (fold increase in extracellular AK activity)",1.2
same,fold induction at 50 µM,"[5]; planktonic P. aeruginosa, positive cutoff 3-fold increase, read-out: AK-based Prestwick library screening result, P. aeruginosa (fold increase in extracellular AK activity)",1
same,fold induction at 50 µM,"[6]; planktonic E. cloacae, positive cutoff 3-fold increase, read-out: AK-based Prestwick library screening result, E. cloacae (fold increase in extracellular AK activity)",1.6
same,fold induction at 50 µM,"[7]; planktonic E. coli, positive cutoff 3-fold increase, read-out: AK-based Prestwick library screening result, E. coli (fold increase in extracellular AK activity)",1.1
N[C@@H](Cc1ccc(O)c(O)c1)C(=O)O [Levodopa],fold induction at 50 µM,[1]; [8],0.8
same,fold induction at 50 µM,[2]; [9],0.5
same,fold induction at 50 µM,[3]; [10],0.6
same,fold induction at 50 µM,[4]; [11],0.7
same,fold induction at 50 µM,[5]; [12],0.5
same,fold induction at 50 µM,[6]; [13],0.8
same,fold induction at 50 µM,[7]; [14],0.6
C[C@H](N)[C@H](O)c1ccc(O)c(O)c1 [Levonordefrin],fold induction at 50 µM,"[1]; planktonic, […], read-out: AK-based Prestwick Library Screening Results, E. faecium (fold increase in extracellular AK activity)",1
same,fold induction at 50 µM,"[2]; planktonic, […], read-out: AK-based Prestwick Library Screening Results, S. aureus (fold increase in extracellular AK activity)",0.6
same,fold induction at 50 µM,"[3]; planktonic, […], read-out: AK-based Prestwick Library Screening Results, K. pneumoniae (fold increase in extracellular AK activity)",0.8
same,fold induction at 50 µM,"[4]; planktonic, […], read-out: AK-based Prestwick Library Screening Results, A. baumannii (fold increase in extracellular AK activity)",0.8
same,fold induction at 50 µM,"[5]; planktonic, […], read-out: AK-based Prestwick Library Screening Results, P. aeruginosa (fold increase in extracellular AK activity)",0.7
same,fold induction at 50 µM,"[6]; planktonic, […], read-out: AK-based Prestwick Library Screening Results, E. cloacae (fold increase in extracellular AK activity)",0.7
same,fold induction at 50 µM,"[7]; planktonic, […], read-out: AK-based Prestwick Library Screening Results, E. coli (fold increase in extracellular AK activity)",0.7
CCC(=O)O[C@@](Cc1ccccc1)(c1ccccc1)[C@@H](C)CN(C)C [Levopropoxyphene napsylate],fold induction at 50 µM,"[1]; […], read-out: AK-based Prestwick Library Screening Results, E. faecium (fold increase in extracellular AK activity)",1
same,fold induction at 50 µM,"[2]; […], read-out: AK-based Prestwick Library Screening Results, S. aureus (fold increase in extracellular AK activity)",0.6
same,fold induction at 50 µM,"[3]; […], read-out: AK-based Prestwick Library Screening Results, K. pneumoniae (fold increase in extracellular AK activity)",0.6
same,fold induction at 50 µM,"[4]; […], read-out: AK-based Prestwick Library Screening Results, A. baumannii (fold increase in extracellular AK activity)",0.7
same,fold induction at 50 µM,"[5]; […], read-out: AK-based Prestwick Library Screening Results, P. aeruginosa (fold increase in extracellular AK activity)",0.7
same,fold induction at 50 µM,"[6]; […], read-out: AK-based Prestwick Library Screening Results, E. cloacae (fold increase in extracellular AK activity)",0.7
same,fold induction at 50 µM,"[7]; […], read-out: AK-based Prestwick Library Screening Results, E. coli (fold increase in extracellular AK activity)",0.6
CCN(CC)CC(=O)Nc1c(C)cccc1C [Lidocaine hydrochloride],fold induction at 50 µM,[1]; [15],1.2
same,fold induction at 50 µM,[2]; [16],1.1
same,fold induction at 50 µM,[3]; [17],1.1
same,fold induction at 50 µM,[4]; [18],1.1
same,fold induction at 50 µM,[5]; [19],1.1
same,fold induction at 50 µM,[6]; [20],1.3
same,fold induction at 50 µM,[7]; [21],1.3
Cc1cccc(C)c1NC(=O)CN1CCN(CCCC(c2ccc(F)cc2)c2ccc(F)cc2)CC1 [Lidoflazine],fold induction at 50 µM,"[1]; planktonic, cutoff for positive 3-fold increase, read-out: AK-based Prestwick Library Screening Results, E. faecium (fold increase in extracellular AK activity)",1
same,fold induction at 50 µM,"[2]; planktonic, cutoff for positive 3-fold increase, read-out: AK-based Prestwick Library Screening Results, S. aureus (fold increase in extracellular AK activity)",1.4
same,fold induction at 50 µM,"[3]; planktonic, cutoff for positive 3-fold increase, read-out: AK-based Prestwick Library Screening Results, K. pneumoniae (fold increase in extracellular AK activity)",1.1
same,fold induction at 50 µM,"[4]; planktonic, cutoff for positive 3-fold increase, read-out: AK-based Prestwick Library Screening Results, A. baumannii (fold increase in extracellular AK activity)",2.9
same,fold induction at 50 µM,"[5]; planktonic, cutoff for positive 3-fold increase, read-out: AK-based Prestwick Library Screening Results, P. aeruginosa (fold increase in extracellular AK activity)",1.3
same,fold induction at 50 µM,"[6]; planktonic, cutoff for positive 3-fold increase, read-out: AK-based Prestwick Library Screening Results, E. cloacae (fold increase in extracellular AK activity)",1.4
same,fold induction at 50 µM,"[7]; planktonic, cutoff for positive 3-fold increase, read-out: AK-based Prestwick Library Screening Results, E. coli (fold increase in extracellular AK activity)",1.4
CCC[C@@H]1C[C@@H](C(=O)N[C@@H]([C@H]2O[C@H](SC)[C@H](O)[C@@H](O)[C@H]2O)[C@@H](C)O)N(C)C1 [Lincomycin hydrochloride],fold induction at 50 µM,[1]; [15],1.3
same,fold induction at 50 µM,[2]; [16],7.9
same,fold induction at 50 µM,[3]; [17],0.9
same,fold induction at 50 µM,[4]; [18],1.2
same,fold induction at 50 µM,[5]; [19],1.2
same,fold induction at 50 µM,[6]; [20],1.3
same,fold induction at 50 µM,[7]; [21],0.9
